Assays:
SH2 Domain of STAT3 = target: T1, SH2 Domain of STAT3 (Homo sapiens, UniProt P40763); assay: Phage display panning, 7-mer peptide library, on the SH2 domain of STAT3; assay type: binding
T1 construct: the SH2 domain of STAT3 is isolated as a target for screening 7-mer peptide phage display libraries; GST; made in house; host or cells: bacteria (E. coli)
Text: Phage display peptide libraries are used because of two powerful features. First, phage libraries generate an enormous diversity of peptides that can be subjected to affinity selection by panning. […] These combinatorial libraries are based on random short peptide sequences fused to a coat protein of bacteriophage, herein pIII of the filamentous coliphage MI3. Panning of the peptide library using an immobilized target, herein STAT3 fusion proteins bound onto beads, is used to select for peptide sequences that bind to STAT3. […] Peptide sequences that occur at elevated frequencies are good candidates for ST4T3-specific binding peptides. […] These cyclic peptides have the advantage of reducing entropic freedom, thereby potentially increasing binding specificity and affinity relative to linear peptides. Another variation on this approach is to combine “affinity maturation” with the phage display peptide library [Scott & Smith, 1990, Science, 249:386-390].
For panning phage with the STAT3 fusion protein, 50 ul of glutathione-Sepharose beads bound to purified GST-Stat3 fusion protein are washed with phosphate buffered saline (PBS). The beads are then incubated with 10 ul of phage suspension (1.4×10^11 virions) in 200 ul final volume of PBS for 30 min at room temperature with occasional mixing. The beads are gently pelleted in a microcentrifuge, and washed 10 times with 1 ml of PBS to remove unbound phage. Background of non-specifically bound phage is reduced by a variety of methods, including pre-blocking the beads with bovine serum albumin, pre-clearing the phage library with GST-glutathione-Sepharose beads, and washing the beads with increasing salt concentrations. Bound phage virions are eluted from the beads by incubation with a molar excess of glutathione for 30 min at room temperature. A small aliquot of the phage eluate is titered and the rest is amplified on the E. coli ER2537 host strain. Following amplification, the phage are purified by polyethylene glycol (PEG) precipitation and then the titer is determined again. […]

MDA-MB-468 cells = assay: Cell growth of MDA-MB-468 breast carcinoma cells; assay type: cell-based, human
Method: (§1) FIG. 6: Src and JAK Inhibitors Block Growth and STAT3 Activation in Breast Carcinoma Cells. MDA-MD-468 cells are treated with inhibitors of EGF receptor (PD158780), Src (PD180970), or JAKs (AG490), and effects on cell growth (Panel A) and STAT3 DNA-binding activity (Panel B) are determined.
(§2) The involvement of these, and other, tyrosine kinases in STAT3 activation is tested using specific inhibitors of JAK family kinases, and the EGF receptor and Src family kinases.

STAT3 [1] = assay: EMSA of constitutive STAT3 DNA-binding activity in MDA-MB-468 breast carcinoma cells; assay type: cell-based, human; details: MDA-MB-468 cells; dose-dependent
Method: as §1
STAT DNA-binding activity in human breast cancer cell lines is examined by electrophoretic mobility shift assays (EMSA) (Garcia et al., 1997, Cell Growth Diff. 8:1267-1276). In these experiments, EMSAs are performed using the ^32P-labeled sis-inducible element (SIE) as a probe to detect STAT DNA-binding activity in nuclear extracts of cells. This synthetic DNA oligonucleotide probe is a high-affinity mutant of the c-fos SIE, called hSIE, that binds both STAT1 and STAT3 (Yu, et al., 1995, Science 269:81-83). […] This activation is constitutive and occurs in the absence of exogenous EGF stimulation. By contrast, STAT3 activation is not detected in any of the three cell lines derived from normal breast tissue.
as §2

p38, JNK1/2, ERK1/2 = assay: Western blot of phosphorylated (activated) MAPKs in Src-transformed fibroblasts; assay type: cell-based, mouse
Method: (§3) Whole-cell lysates are prepared in boiling sodium dodecyl sulfate (SDS) sample-loading buffer in order to extract total proteins from the cytoplasm and nucleus as well as preserve the in vivo phosphorylation […]. Equivalent amounts of total cellular protein are electrophoresed on an SDS-10% polyacrylamide gel and transferred to nitrocellulose membranes. Probing of nitrocellulose membranes with primary antibodies and detection of horseradish peroxidase-conjugated secondary antibodies by enhanced chemiluminescence (Amersham) are performed as previously described (Garcia, et al., 1997, Cell Growth Differ. 8:1267-1276, Turkson, et al., 1998, Mol. Cell. Biol. 18:2545-2552, Yu, et al., 1995, Science 269:81-83). Probes used are rabbit polyclonal antibodies against […] amino acid residues (626-640) of STAT3 (Santa Cruz Biotechnology), phosphoserine-727 of STAT3 (25), active (phospho-) JNK, p38^mapk or ERKs (New England Biolabs), or total JNK, p38^mapk or ERKs (Santa Cruz Biotechnology).

[2] = tested on: NIH 3T3/v-Ras fibroblasts; assay: Soft-agar colony formation of NIH 3T3/v-Ras fibroblasts; assay type: cell-based, mouse; details: treated once weekly
Method: (§4) Colony formation assays are carried out in 6-well dishes. Each well contains 1.5 ml of 1% agarose in DMEM as the bottom layer. The top layer in each well consists of 1.5 ml of 0.5% agarose in DMEM containing 4,000 or 6,000 of NIH 3T3/v-Src or NIH 3T3/v-Ras fibroblasts, respectively. Treatment with inhibitors is initiated one day after seeding cells by adding 75-100 μl of medium with or without inhibitors and repeated once a week until formation of large colonies is evident. For quantitation, colonies are stained by adding 20 μl of 1 mg/ml iodonitrotetrazoliurn violet to each well and incubating at 37° C. overnight. Stained colonies are counted the next day.

STAT3 [3] = assay: STAT3-specific luciferase reporter (pLucTKS3) induced by v-Src in NIH 3T3 fibroblasts; assay type: cell-based, mouse; details: for constitutive induction of the STAT3-dependent luciferase reporter: NIH 3T3/v-Src/TKS3 cells stably expressing reporter, 6 hours; for STAT3-specific luciferase reporter induction by v-Src: transiently transfected NIH 3T3 cells, inhibitor for 6 h
Method: NIH 3T3, NIH 3T3/v-Src and NIH 3T3/v-Ras fibroblasts are grown in Dulbecco's modified Eagle's medium (DMEM) containing 5% iron-supplemented bovine calf serum (BCS). Transient transfections are carried out by the standard calcium phosphate method as previously described (Turkson, et al., 1998, Mol. Cell. Biol. 18:2545-2552). NIH 3T3 fibroblasts are seeded at 5×10^5 cells/100-mm plate in DMEM plus 5% BCS at 18 to 24 hours prior to transfection. Total DNA for transfections is typically 20 μg per plate, including 4 μg of luciferase reporter construct (pLucTKS3), 0.2 μg of β-galactosidase (β-Gal) internal control vector, and the amounts of expression vector indicated in figure legends. Transfection is terminated 15 hours later by aspirating the medium, washing the cells with phosphate-buffered saline (PBS), and adding fresh DMEM. For generation of NIH 3T3/v-Src/TKS3 cell lines stably expressing the STAT3 reporter, NIH 3T3/v-Src cells are transfected using Fugene 6 (Boehringer Mannheim) according to the supplier's protocol. The transfection mixture contains 5.5 μg total DNA per 10 cm plate, including […] of the STAT3 reporter, pLucTKS3, and 0.5 μg of pcDNA3 that carries the neomycin resistance gene. Individual G418-resistant clones are picked and characterized with regard to STAT3-dependent luciferase activities.
(§5) In the case of stable NIH 3T3/v-Src/TKS3 clones, cells are treated with inhibitors or DMSO for 6 hours prior to preparing cytosolic extracts. For transient expression assays, cytosolic extracts are prepared from cells at 48 hours posttransfection as previously described (Turkson, et al., 1998, Mol. Cell. Biol. 18:2545-2552). Briefly, after two washes with PBS and equilibration for 5 min with 0.5 ml of PBS-0.5 mM EDTA, cells are scraped off the dishes and the cell pellet is obtained by centrifugation (4,500×g, 2 min, 4° C.). Cells are resuspended in 0.4 ml of low-salt HEPES buffer (10 mM HEPES [pH 7.8], 10 mM KCl, 0.1 mM EGTA, 0.1 mM EDTA, 1 mM phenylmethylsulfonyl fluoride, and 1 mM dithiothreitol) for 15 min, lysed by the addition of 20 μl of 10% Nonidet P-40 (NP-40), and centrifuged (10,000×g, 30 s, 4° C.) to obtain the cytosolic supernatant, which is used for luciferase assays (Promega) measured with a luminometer and for β-Gal activity detection by colorimetric assay at A570. As an internal control for transient transfection efficiency, results are normalized to β-Gal activity. For EMSA, nuclear extracts are prepared from transiently-transfected NIH 3T3 cells and volumes containing equal amounts of total protein are incubated with ^32P-labeled M67SIE oligonucleotide probe, as previously reported (Garcia, et al., 1997, Cell Growth Differ. 8:1267-1276, Yu, et al., 1995, Science 269:81-83). […]

[4] = tested on: NIH 3T3/v-Src fibroblasts; assay: Soft-agar colony formation of NIH 3T3/v-Src fibroblasts; assay type: cell-based, mouse; details: treated once weekly
Method: as §4

STAT3 [5] = assay: EMSA (M67SIE probe) of STAT3 DNA-binding activity in NIH 3T3 cells expressing v-Src; assay type: cell-based, mouse; details: v-Src-expressing NIH 3T3 cells, 6 hours
Method: as §5, with “activity.” for “activity. For EMSA, nuclear extracts are prepared from transiently-transfected NIH 3T3 cells and volumes containing equal amounts of total protein are incubated with ^32P-labeled M67SIE oligonucleotide probe, as previously reported (Garcia, et al., 1997, Cell Growth Differ. 8:1267-1276, Yu, et al., 1995, Science 269:81-83).”

STAT3 [6] = assay: Western blot of STAT3 serine 727 phosphorylation in Src-transformed NIH 3T3 fibroblasts; assay type: cell-based, mouse; details: 6 hours
Method: as §3

T1 sequence (P40763 580-670 limits assumed): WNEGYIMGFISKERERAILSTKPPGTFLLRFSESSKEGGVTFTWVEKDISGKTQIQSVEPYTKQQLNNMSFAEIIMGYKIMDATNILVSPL

## IQSPHFF (listed as Homo sapiens)
SH2 Domain of STAT3
  Frequency (out of 100 clones): 6%

## Cc1cc(Nc2ncc3cc(-c4c(Cl)cccc4Cl)c(=O)n(C)c3n2)ccc1F [PD180970]
MDA-MB-468 cells
  cell growth: inhibition of cell growth
STAT3 [1]
  constitutive STAT3 activation (STAT3 DNA-binding activity): effectively blocked

## COc1cccc(-c2cc(=O)c3ccccc3o2)c1N [PD98059]
p38, JNK1/2, ERK1/2; Src-transformed fibroblasts
  basal ERKs activity: complete block
[2]
  colony formation of Ras-transformed fibroblasts in soft agar: lack of significant effect
STAT3 [3]
  constitutive induction of the STAT3-dependent luciferase reporter: partially
  STAT3-specific luciferase reporter induction by v-Src: significantly suppresses
[4]
  colony formation of Src-transformed cells in soft agar: lack of significant effect
STAT3 [5]
  STAT3 DNA-binding activity induced by v-Src: no effect
STAT3 [6]
  STAT3 serine phosphorylation (phosphoserine-727): blocks

## CNc1cc2c(Nc3cccc(Br)c3)ncnc2cn1 [PD158780]
MDA-MB-468 cells
  cell growth: not by the EGF receptor inhibitor
STAT3 [1]
  constitutive STAT3 activation (STAT3 DNA-binding activity): does not block

## Oc1ccc(-c2nc(-c3ccncc3)c(-c3ccc(F)cc3)[nH]2)cc1 [SB202190]
p38, JNK1/2, ERK1/2; Src-transformed cells
  phosphorylation of MAPK members, including p38: does not significantly alter
[2]
  colony formation of Ras-transformed fibroblasts in soft agar: no significant effects
STAT3 [3]
  constitutive induction of the STAT3-dependent luciferase reporter: completely
  STAT3-specific luciferase reporter induction by v-Src: significant inhibition
[4]
  colony formation of Src-transformed cells in soft agar: completely blocks
STAT3 [5]
  STAT3 DNA-binding activity induced by v-Src: no effect
STAT3 [6]
  STAT3 serine phosphorylation (phosphoserine-727): blocks

## ASTLPKA (listed as Homo sapiens)
SH2 Domain of STAT3
  Frequency (out of 100 clones): 7%

## HAIYPRN (listed as Homo sapiens)
SH2 Domain of STAT3
  Frequency (out of 100 clones): 16%

Source: patent US9345682B2, “Inhibition of STAT3 signal transduction for human cancer therapy” (University of South Florida, priority 1999, dated 2016)
